Measurements taken from patent publication US20170014386A1, “Treatment of Multidrug-Resistant Nephrotic Syndrome (MDR-NS) in Children” (AbbVie, Inc., priority 2015, published 2017).
Entries after “also recorded” stand apart in the source; their conditions may differ.

Tests used:
[1] = tested on: podocin; experiment: podocin expression analysis (Western blot, qRT-PCR, immunofluorescence) in the mouse model; assay type: in vivo; details: treated animals, Example 2
Procedure: Further podocin expression analysis was carried out.

[2] = target: T1, ETA receptor (Homo sapiens, UniProt P25101); details: cited from earlier work
T1 sequence (P25101 21-427): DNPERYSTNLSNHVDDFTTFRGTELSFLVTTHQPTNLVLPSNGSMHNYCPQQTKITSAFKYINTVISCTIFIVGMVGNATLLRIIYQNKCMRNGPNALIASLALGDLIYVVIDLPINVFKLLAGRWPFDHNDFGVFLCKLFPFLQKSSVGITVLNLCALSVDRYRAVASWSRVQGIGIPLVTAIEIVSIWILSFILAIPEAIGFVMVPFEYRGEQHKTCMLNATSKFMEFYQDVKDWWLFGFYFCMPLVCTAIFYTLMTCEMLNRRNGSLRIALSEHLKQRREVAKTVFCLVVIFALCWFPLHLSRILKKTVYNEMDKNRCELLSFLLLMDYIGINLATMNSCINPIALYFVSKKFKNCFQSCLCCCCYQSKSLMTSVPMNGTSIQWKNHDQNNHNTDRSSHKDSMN

[3] = tested on: Nphs2^R140Q/− mice; experiment: mean arterial blood pressure in inducible mouse model of podocin-related nephrotic syndrome; assay type: in vivo
Procedure: (§1) We have analyzed results from studies in a transgenic mouse model where the mice were treated with atrasentan. Using the Cre recombinase technology, we generated a novel inducible mouse model of podocin-related nephrotic syndrome. Cross-breeding of animals carrying one foxed podocin construct, one podocin allele with the R140Q mutation, and tamoxifen-sensitive inducible Cre enabled us to induce hemizygosity for the R140Q mutant. In this work, we were able to examine the human missense mutation […] of NPHS2 gene identified in pediatric patients with nephrotic syndrome in vivo in an inducible mouse model of R140Q mutation (murine analogue to the human mutation). […] Furthermore, from the end of the week four of observation the values of plasma urea and creatinine started to increase slightly and the creatinine clearance appeared to reduce, pointing to the beginning of renal failure. Seven animals were treated with 5 mg/kg/d atrasentan and another three animals were treated with the lower dose of 2.5 mg/kg/d atrasentan via food intake for four weeks. Furthermore, we started a new group of 8 animals with a higher dose treatment of 15 mg/kg/d atrasentan. […] Proteinuria (FIG. 1A, FIG. 1B, and FIG. 1D), weight gain and blood pressure (FIG. 1C) were monitored once weekly. All animals were sacrificed at the end of the observation period at week 5 (or week 9 with delayed treatment) and the biochemical parameters (FIG. 3A-E) were determined. All results were compared to two control groups of healthy and sick untreated animals. […] Therefore, we started the treatment after 4 weeks of disease state (5 mg/kg/d) when animals are showing high proteinuria, performing 4-weeks treatment duration (n=14) and 8 weeks treatment duration (n=4), respectively. Proteinuria (FIG. 6), weight gain and blood pressure (FIG. 7) were monitored at least every 2 weeks. All animals were sacrificed at the end of the observation period and biochemical parameters (FIG. 8) as well as histological changes (FIG. 9) were determined consequently. All results were compared to control groups of healthy and sick untreated animals.

[4] = tested on: Endothelin-1, ETAR and ETBR; experiment: expression of Endothelin-1, ETAR and ETBR (real-time PCR, Western blot) in kidney of the mouse model; assay type: in vivo; details: Atrasentan treated animals, Example 2
Procedure: Western blot analysis was performed to confirm the observation of increased mRNA level in the late course of disease (FIG. 11).

[5] = tested on: Nphs2^R140Q/− mice; experiment: proteinuria in inducible mouse model of podocin-related nephrotic syndrome; assay type: in vivo
Procedure: as §1, with “All results were compared to control groups of healthy and sick untreated animals.” left out

[6] = tested on: Nphs2^R140Q/− mice; experiment: kidney histopathology (tubulointerstitial fibrosis, glomerular sclerosis index, podocytes per glomerulus) in the mouse model; assay type: in vivo
Procedure: We have analyzed results from studies in a transgenic mouse model where the mice were treated with atrasentan. Using the Cre recombinase technology, we generated a novel inducible mouse model of podocin-related nephrotic syndrome. Cross-breeding of animals carrying one foxed podocin construct, one podocin allele with the R140Q mutation, and tamoxifen-sensitive inducible Cre enabled us to induce hemizygosity for the R140Q mutant. In this work, we were able to examine the human missense mutation […] of NPHS2 gene identified in pediatric patients with nephrotic syndrome in vivo in an inducible mouse model of R140Q mutation (murine analogue to the human mutation). […] Furthermore, from the end of the week four of observation the values of plasma urea and creatinine started to increase slightly and the creatinine clearance appeared to reduce, pointing to the beginning of renal failure. Proteinuria (FIG. 1A, FIG. 1B, and FIG. 1D), weight gain and blood pressure (FIG. 1C) were monitored once weekly. All animals were sacrificed at the end of the observation period at week 5 (or week 9 with delayed treatment) and the biochemical parameters (FIG. 3A-E) were determined. All results were compared to two control groups of healthy and sick untreated animals. […] Quantification was done with Image ProPremier (glomerular sclerosis index-GSI, 50 glomeruli/animal). […] FIG. 5C tabulates podocyte numbers per glomerulusWT1-via immunostaining of glomerular cross-sections (4 μm and 10 μm). Quantification was done with ImageJ according to Animal Models of Diabetic Complications Consortium protocol. 50 glomeruli/animal. We found no effect on the number of podocytes per glomerulus in treated animals. Proteinuria (FIG. 6), weight gain and blood pressure (FIG. 7) were monitored at least every 2 weeks. All animals were sacrificed at the end of the observation period and biochemical parameters (FIG. 8) as well as histological changes (FIG. 9) were determined consequently. All results were compared to control groups of healthy and sick untreated animals. […] FIG. 9A are exemplary images of healthy, untreated and Atrasentan treated kidney samples.

[7] = delayed treatment, 4 weeks of treatment, compared to sick untreated animals of the same age, Example 2

## CCCCN(CCCC)C(=O)CN1C[C@H](c2ccc3c(c2)OCO3)[C@@H](C(=O)O)[C@@H]1c1ccc(OC)cc1 [atrasentan, (2R,3R,4S)-4-(1,3-Benzodioxol-5-yl)-1-[2-(dibutylamino)-2-oxoethyl]-2-(4-methoxyphenyl)pyrrolidine-3-carboxylic acid]
[1]; Western blot
  Podocin protein abundance: partly preserved
[1]; qRT-PCR
  Podocin mRNA expression: partly preserved
[2]
  relative selectivity for ETA receptor over ETB receptor: greater than 1,800 fold
[3]; delayed treatment 5 mg/kg/d, compared to untreated animals, Example 1
  blood pressure: lowered blood pressure
[3]; delayed treatment (D), wk7, p=0.001 v untreated 99.5
  MAP: 80.4 mmHg
[3]; four-week delay, 5 mg/kg/d, compared to untreated animals at week 5 and 7 (p=0.001, p=0.047), Example 2
  blood pressure: significant decrease of blood pressure
[3]; prophylactic 2.5 mg/kg/d, compared to untreated and healthy animals, Example 1
  blood pressure: higher blood pressure
[3]; prophylactic 5 mg/kg/d, compared to untreated and healthy animals, Example 1
  blood pressure: higher blood pressure
[3]; prophylactic 15 mg/kg/d, compared to untreated animals, Example 1
  blood pressure: lower blood pressure
[4]
  ETAR mRNA expression: lower expression
  ETBR mRNA expression: lower expression
  endothelin-1 mRNA expression: lower expression
[4]; Western blot
  protein expression of endothelin-1: decreased protein expression
[5]; delayed treatment 5 mg/kg/d after 4 weeks of disease state, Example 2
  proteinuria: reaches a peak and declines afterwards progressively; also recorded: decreased progressively
[5]; delayed treatment 5 mg/kg/d started four weeks after induction, n=9, Example 1
  proteinuria: effective attenuation of proteinuria; also recorded: antiproteinuric effect
[5]; immediate or prophylactic treatment, 2.5, 5 or 15 mg/kg/d via food, first 4 weeks after induction, Example 1
  proteinuria: no beneficial effect in attenuating proteinuria; also recorded: no antiproteinuric effect
[6]; 2.5 mg/kg/d, p<0.05 compared to untreated group, Example 1
  tubulointerstitial fibrosis: reduced area affected by fibrosis
[6]; 5 mg/kg/d, p<0.05 compared to untreated group, Example 1
  tubulointerstitial fibrosis: reduced area affected by fibrosis
[6]; 15 mg/kg/d, Example 1
  tubulointerstitial fibrosis: increase of tubulointerstial fibrosis
[6]; all treatment groups, PAS staining, 50 glomeruli/animal, Example 1
  glomerular sclerosis index (GSI): No improvement
[6]; delayed treatment (D), n.s. vs. untreated wk 8 32%
  podocytes per glom: 54 % of healthy controls
[6]; delayed treatment (D), n=9, p=0.0008 v untreated wk 8 2.27
  GSI: 1.69
[6]; [7]
  glomerulosclerosis: mitigated
  tubulointerstitial fibrosis: mitigated
[6]; delayed treatment, 4 weeks of treatment, Example 2
  podocyte population: No notable effects
[6]; treated animals, WT1 immunostaining, Example 1
  number of podocytes per glomerulus: no effect
